Tests used:
Test in all cases: normalised viability (% of control), CellTiter-Blue; higher = more viable cells (about 100 = DMSO control)
Details in all cases: incubation time: 72 h
SK-BR-3 = test system: SK-BR-3
Outline: (§1)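 Seeded at 20 µl suspension per well onto compound-loaded 384-well plates, breast cancer cell lines were incubated 72 h. CellTiter-Blue fluorescence at 560/590 nm was then read, with each plate normalised to vehicle (100) and a positive kill control (0). Normalised viability is reported at a single listed concentration of the series.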

BT-549 = test system: BT-549
Outline: as §1

DU-4475 = test system: DU-4475
Outline: as §1

CAL-51 = test system: CAL-51
Outline: as §1

CAL-148 = test system: CAL-148
Outline: as §1

HCC1937 = test system: HCC1937
Outline: as §1

BT-474 = test system: BT-474
Outline: as §1

CAL-85-1 = test system: CAL-85-1
Outline: as §1

MDA-MB-231 = test system: MDA-MB-231
Outline: as §1

HCC1143 = test system: HCC1143
Outline: as §1

MDA-MB-436 = test system: MDA-MB-436
Outline: as §1

Hs578T = test system: Hs578T
Outline: as §1

HCC1599 = test system: HCC1599
Outline: as §1

MFM-223 = test system: MFM-223
Outline: as §1

MDA-MB-453 = test system: MDA-MB-453
Outline: as §1

CAL-120 = test system: CAL-120
Outline: as §1

HDQ-P1 = test system: HDQ-P1
Outline: as §1

COc1cc(F)c(F)c(Nc2ccc(I)cc2F)c1NS(=O)(=O)C1(C[C@H](O)CO)CC1 [RDEA119]
normalised viability (SK-BR-3; 10 nM): 110%
normalised viability (SK-BR-3; 1000 nM): 81.8%
normalised viability (SK-BR-3; 10000 nM): 100%
normalised viability (BT-549; 10 nM): 98.7%
normalised viability (BT-549; 1000 nM): 87.5%
normalised viability (BT-549; 10000 nM): 66.4%
normalised viability (DU-4475; 3 nM): 91.4%
normalised viability (DU-4475; 30 nM): 61.2%
normalised viability (DU-4475; 100 nM): 28.2%
normalised viability (CAL-51; 3 nM): 97%
normalised viability (CAL-51; 30 nM): 84.5%
normalised viability (CAL-51; 100 nM): 81.2%
normalised viability (CAL-148; 3 nM): 91.9%
normalised viability (CAL-148; 30 nM): 80.7%
normalised viability (CAL-148; 100 nM): 80%
normalised viability (HCC1937; 10 nM): 102%
normalised viability (HCC1937; 1000 nM): 72.4%
normalised viability (HCC1937; 10000 nM): 62.8%
normalised viability (BT-474; 10 nM): 108%
normalised viability (BT-474; 1000 nM): 103%
normalised viability (BT-474; 10000 nM): 110%
normalised viability (CAL-85-1; 3 nM): 95.2%
normalised viability (CAL-85-1; 30 nM): 98.8%
normalised viability (CAL-85-1; 100 nM): 97.3%
normalised viability (MDA-MB-231; 10 nM): 73.7%
normalised viability (MDA-MB-231; 1000 nM): 28.7%
normalised viability (MDA-MB-231; 10000 nM): 29.3%
normalised viability (HCC1143; 10 nM): 117%
normalised viability (HCC1143; 1000 nM): 62.8%
normalised viability (HCC1143; 10000 nM): 61.7%
normalised viability (MDA-MB-436; 10 nM): 93.3%
normalised viability (MDA-MB-436; 1000 nM): 103%
normalised viability (MDA-MB-436; 10000 nM): 84.6%
normalised viability (Hs578T; 10 nM): 103%
normalised viability (Hs578T; 1000 nM): 69.7%
normalised viability (Hs578T; 10000 nM): 54.5%
normalised viability (HCC1599; 10 nM): 92.5%
normalised viability (HCC1599; 1000 nM): 78.6%
normalised viability (HCC1599; 10000 nM): 82%
normalised viability (MFM-223; 10 nM): 94.8%
normalised viability (MFM-223; 1000 nM): 75.7%
normalised viability (MFM-223; 10000 nM): 54.7%
normalised viability (MDA-MB-453; 3 nM): 87.9%
normalised viability (MDA-MB-453; 30 nM): 95.5%
normalised viability (MDA-MB-453; 100 nM): 98.7%
normalised viability (CAL-120; 10 nM): 103%
normalised viability (CAL-120; 1000 nM): 64.5%
normalised viability (CAL-120; 10000 nM): 47.3%
normalised viability (HDQ-P1; 3 nM): 81.5%
normalised viability (HDQ-P1; 30 nM): 88%
normalised viability (HDQ-P1; 100 nM): 110%

Cc1sc2c(c1C)C(c1ccc(Cl)cc1)=N[C@@H](CC(=O)OC(C)(C)C)c1nnc(C)n1-2 [(+)JQ1]
normalised viability (SK-BR-3; 10 nM): 117%
normalised viability (SK-BR-3; 1000 nM): 53.9%
normalised viability (SK-BR-3; 10000 nM): 51.8%
normalised viability (BT-549; 10 nM): 108%
normalised viability (BT-549; 1000 nM): 53.8%
normalised viability (BT-549; 10000 nM): 36.9%
normalised viability (DU-4475; 3 nM): 104%
normalised viability (DU-4475; 30 nM): 77.6%
normalised viability (DU-4475; 100 nM): 90.1%
normalised viability (CAL-51; 3 nM): 100%
normalised viability (CAL-51; 30 nM): 96.9%
normalised viability (CAL-51; 100 nM): 104%
normalised viability (CAL-148; 3 nM): 95.7%
normalised viability (CAL-148; 30 nM): 103%
normalised viability (CAL-148; 100 nM): 97.3%
normalised viability (HCC1937; 10 nM): 109%
normalised viability (HCC1937; 1000 nM): 62.9%
normalised viability (HCC1937; 10000 nM): 55.9%
normalised viability (BT-474; 10 nM): 118%
normalised viability (BT-474; 1000 nM): 95.1%
normalised viability (BT-474; 10000 nM): 102%
normalised viability (CAL-85-1; 3 nM): 93.2%
normalised viability (CAL-85-1; 30 nM): 82.6%
normalised viability (CAL-85-1; 100 nM): 80%
normalised viability (MDA-MB-231; 10 nM): 107%
normalised viability (MDA-MB-231; 1000 nM): 32.8%
normalised viability (MDA-MB-231; 10000 nM): 35.9%
normalised viability (HCC1143; 10 nM): 91.1%
normalised viability (HCC1143; 1000 nM): 67.6%
normalised viability (HCC1143; 10000 nM): 58.7%
normalised viability (MDA-MB-436; 10 nM): 105%
normalised viability (MDA-MB-436; 1000 nM): 86.3%
normalised viability (MDA-MB-436; 10000 nM): 99.7%
normalised viability (Hs578T; 10 nM): 100%
normalised viability (Hs578T; 1000 nM): 61.4%
normalised viability (Hs578T; 10000 nM): 44.8%
normalised viability (HCC1599; 10 nM): 115%
normalised viability (HCC1599; 1000 nM): 58%
normalised viability (HCC1599; 10000 nM): 54.6%
normalised viability (MFM-223; 10 nM): 99.3%
normalised viability (MFM-223; 1000 nM): 54%
normalised viability (MFM-223; 10000 nM): 45.4%
normalised viability (MDA-MB-453; 3 nM): 111%
normalised viability (MDA-MB-453; 30 nM): 107%
normalised viability (MDA-MB-453; 100 nM): 84.5%
normalised viability (CAL-120; 10 nM): 83.2%
normalised viability (CAL-120; 1000 nM): 47.7%
normalised viability (CAL-120; 10000 nM): 49.2%
normalised viability (HDQ-P1; 3 nM): 102%
normalised viability (HDQ-P1; 30 nM): 113%
normalised viability (HDQ-P1; 100 nM): 107%

Cn1cc(C2=Nc3cc(NC(=O)C(N)C4CCCCC4)cc4c3C2=CNNC4=O)cn1 (centres undefined)
normalised viability (SK-BR-3; 10 nM): 81.8%
normalised viability (SK-BR-3; 1000 nM): 13.8%
normalised viability (SK-BR-3; 10000 nM): 10.8%
normalised viability (BT-549; 10 nM): 80.9%
normalised viability (BT-549; 1000 nM): 37.4%
normalised viability (BT-549; 10000 nM): 18.6%
normalised viability (DU-4475; 3 nM): 89.6%
normalised viability (DU-4475; 30 nM): 82.9%
normalised viability (DU-4475; 100 nM): 86.3%
normalised viability (CAL-51; 3 nM): 104%
normalised viability (CAL-51; 30 nM): 87.2%
normalised viability (CAL-51; 100 nM): 93%
normalised viability (CAL-148; 3 nM): 88.3%
normalised viability (CAL-148; 30 nM): 93.5%
normalised viability (CAL-148; 100 nM): 94%
normalised viability (HCC1937; 10 nM): 98.2%
normalised viability (HCC1937; 1000 nM): 55.3%
normalised viability (HCC1937; 10000 nM): 22.7%
normalised viability (BT-474; 10 nM): 103%
normalised viability (BT-474; 1000 nM): 104%
normalised viability (BT-474; 10000 nM): 98.9%
normalised viability (CAL-85-1; 3 nM): 89%
normalised viability (CAL-85-1; 30 nM): 78.3%
normalised viability (CAL-85-1; 100 nM): 90%
normalised viability (MDA-MB-231; 10 nM): 81.7%
normalised viability (MDA-MB-231; 1000 nM): 85.6%
normalised viability (MDA-MB-231; 10000 nM): 34.5%
normalised viability (HCC1143; 10 nM): 85.5%
normalised viability (HCC1143; 1000 nM): 57.2%
normalised viability (HCC1143; 10000 nM): 25.6%
normalised viability (MDA-MB-436; 10 nM): 102%
normalised viability (MDA-MB-436; 1000 nM): 70%
normalised viability (MDA-MB-436; 10000 nM): 32.8%
normalised viability (Hs578T; 10 nM): 122%
normalised viability (Hs578T; 1000 nM): 35.1%
normalised viability (Hs578T; 10000 nM): 29.5%
normalised viability (HCC1599; 10 nM): 94.6%
normalised viability (HCC1599; 1000 nM): 52.8%
normalised viability (HCC1599; 10000 nM): 42%
normalised viability (MFM-223; 10 nM): 86.1%
normalised viability (MFM-223; 1000 nM): 57.3%
normalised viability (MFM-223; 10000 nM): 62.2%
normalised viability (MDA-MB-453; 3 nM): 96.7%
normalised viability (MDA-MB-453; 30 nM): 94.9%
normalised viability (MDA-MB-453; 100 nM): 72.4%
normalised viability (CAL-120; 10 nM): 96.5%
normalised viability (CAL-120; 1000 nM): 57.2%
normalised viability (CAL-120; 10000 nM): 27%
normalised viability (HDQ-P1; 3 nM): 104%
normalised viability (HDQ-P1; 30 nM): 102%
normalised viability (HDQ-P1; 100 nM): 106%

Nc1nc2[nH]cnc2c(=S)[nH]1 [Thioguanine]
normalised viability (SK-BR-3; 10 nM): 99.7%
normalised viability (SK-BR-3; 1000 nM): 103%
normalised viability (SK-BR-3; 10000 nM): 49.6%
normalised viability (BT-549; 10 nM): 94%
normalised viability (BT-549; 1000 nM): 106%
normalised viability (BT-549; 10000 nM): 49%
normalised viability (DU-4475; 3 nM): 120%
normalised viability (DU-4475; 30 nM): 112%
normalised viability (DU-4475; 100 nM): 116%
normalised viability (CAL-51; 3 nM): 114%
normalised viability (CAL-51; 30 nM): 109%
normalised viability (CAL-51; 100 nM): 109%
normalised viability (CAL-148; 3 nM): 105%
normalised viability (CAL-148; 30 nM): 116%
normalised viability (CAL-148; 100 nM): 102%
normalised viability (HCC1937; 10 nM): 76.3%
normalised viability (HCC1937; 1000 nM): 86.1%
normalised viability (HCC1937; 10000 nM): 40.4%
normalised viability (BT-474; 10 nM): 112%
normalised viability (BT-474; 1000 nM): 113%
normalised viability (BT-474; 10000 nM): 102%
normalised viability (CAL-85-1; 3 nM): 111%
normalised viability (CAL-85-1; 30 nM): 97.4%
normalised viability (CAL-85-1; 100 nM): 104%
normalised viability (MDA-MB-231; 10 nM): 92.7%
normalised viability (MDA-MB-231; 1000 nM): 58.4%
normalised viability (MDA-MB-231; 10000 nM): 56%
normalised viability (HCC1143; 10 nM): 92.6%
normalised viability (HCC1143; 1000 nM): 103%
normalised viability (HCC1143; 10000 nM): 82.9%
normalised viability (MDA-MB-436; 10 nM): 104%
normalised viability (MDA-MB-436; 1000 nM): 74.5%
normalised viability (MDA-MB-436; 10000 nM): 65.6%
normalised viability (Hs578T; 10 nM): 137%
normalised viability (Hs578T; 1000 nM): 96.4%
normalised viability (Hs578T; 10000 nM): 32.9%
normalised viability (HCC1599; 10 nM): 111%
normalised viability (HCC1599; 1000 nM): 77%
normalised viability (HCC1599; 10000 nM): 103%
normalised viability (MFM-223; 10 nM): 89.4%
normalised viability (MFM-223; 1000 nM): 88.6%
normalised viability (MFM-223; 10000 nM): 82.2%
normalised viability (MDA-MB-453; 3 nM): 132%
normalised viability (MDA-MB-453; 30 nM): 102%
normalised viability (MDA-MB-453; 100 nM): 98.6%
normalised viability (CAL-120; 10 nM): 94.1%
normalised viability (CAL-120; 1000 nM): 67.2%
normalised viability (CAL-120; 10000 nM): 34.9%
normalised viability (HDQ-P1; 3 nM): 117%
normalised viability (HDQ-P1; 30 nM): 127%
normalised viability (HDQ-P1; 100 nM): 101%
